Patent US11786519B2, “Apoptosis-inducing agents for the treatment of cancer and immune and autoimmune diseases” (AbbVie Inc., priority 2011, dated 2023)

biological target: Bcl-xL (Homo sapiens, UniProt Q07817); assay: TR-FRET binding assay, competition with F-Bak for Bcl-xL; settings: competition with F-Bak probe, GST-Bcl-xL
Protocol: Determination of the utility of compounds having Formula (I) as binders to and inhibitors of anti-apoptotic Bcl-xL proteins was performed using the Time Resolved-Fluorescence Resonance Energy Transfer (TR-FRET) Assay. Tb-anti-GST antibody was purchased from Invitrogen (Catalog No. PV4216).
The measurement of competition of compounds of the invention with F-Bak for a Bcl-2 family protein (Bcl-xL) binding site using a Time Resolved Fluorescence Resonance Energy Transfer (TR-FRET) binding assay:
Test compounds were serially diluted in DMSO starting at 50 µM (2× starting concentration; 10% DMSO) and 10 μL transferred into a 384-well plate.
The samples are then mixed on a shaker for 1 minute then incubated for an additional 2 hours at room temperature. For each assay plate, a probe/antibody and protein/antibody/probe mixture were included as a negative and a positive control, respectively. Fluorescence was measured on the ENVISION plate reader (Perkin Elmer) using a 340/35 nm excitation filter and 520/525 (F-Bak) and 495/510 nm ([…]) emission filters. Dissociation constants (Ki) were determined using Wang's equation (Wang, Z. X. An exact mathematical expression for describing competitive binding of two different ligands to a protein molecule. FEBS Lett. 1995 360:111-114). The TR-FRET assay can be performed in the presence of varying concentrations of human serum (HS) or fetal bovine serum (FBS).

Sequence of Bcl-xL (Q07817 whole entry): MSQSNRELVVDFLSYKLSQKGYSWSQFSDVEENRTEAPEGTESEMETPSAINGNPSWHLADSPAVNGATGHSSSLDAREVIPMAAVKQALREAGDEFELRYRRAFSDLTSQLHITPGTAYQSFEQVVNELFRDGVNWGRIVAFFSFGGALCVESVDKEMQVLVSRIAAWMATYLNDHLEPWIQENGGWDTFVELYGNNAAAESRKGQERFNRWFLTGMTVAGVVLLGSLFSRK

| Structure (SMILES) | Ki [nM] |
| --- | --- |
| O=C(Nc1nc2ccccc2s1)c1cccc2c1CN(c1ccc(-c3cnn(CC4CCC5(CCC5)CC4)c3)c(C(=O)O)n1)CC2 [Example 4, 6-[8-(1,3-benzothiazol-2-ylcarbamoyl)-3,4-dihydroisoquinolin-2(1H)-yl]-3-[1-(spiro[3.5]non-7-ylmethyl)-1H-pyrazol-4-yl]pyridine-2-carboxylic acid] | 0.5 |
| Cc1c(-c2ccc(N3CCc4cccc(C(=O)Nc5nc6ccccc6s5)c4C3)nc2C(=O)O)cccc1S(=O)(=O)NC12CC3CC(CC(C3)C1)C2 [Example 51, 6-[8-(1,3-benzothiazol-2-ylcarbamoyl)-3,4-dihydroisoquinolin-2(1H)-yl]-3-{2-methyl-3-[tricyclo[3.3.1.1^3,7]dec-1-ylsulfamoyl]phenyl}pyridine-2-carboxylic acid] | 0.3 |
| Cc1c(-c2ccc(N3CCc4cccc(C(=O)Nc5nc6ccccc6s5)c4C3)nc2C(=O)O)cc(C#N)n1CCC12CC3CC(CC(C3)C1)C2 [Example 34, 6-[8-(1,3-benzothiazol-2-ylcarbamoyl)-3,4-dihydroisoquinolin-2(1H)-yl]-3-{5-cyano-2-methyl-1-[2-(tricyclo[3.3.1.1^3,7]dec-1-yl)ethyl]-1H-pyrrol-3-yl}pyridine-2-carboxylic acid] | 0.4 |
| N#Cc1c(NC23CC4CC(CC(C4)C2)C3)cccc1-c1ccc(N2CCc3cccc(C(=O)Nc4nc5ccccc5s4)c3C2)nc1C(=O)O [Example 47, 6-[8-(1,3-benzothiazol-2-ylcarbamoyl)-3,4-dihydroisoquinolin-2(1H)-yl]-3-{2-cyano-3-[tricyclo[3.3.1.1^3,7]dec-1-ylamino]phenyl}pyridine-2-carboxylic acid] | 0.2 |
| O=C(Nc1nc2ccccc2s1)c1cccc2c1CN(c1ccc(-c3cnn(CC45CC6CC(CC(C6)C4)C5)c3Cl)c(C(=O)O)n1)CC2 [Example 42, 6-[8-(1,3-benzothiazol-2-ylcarbamoyl)-3,4-dihydroisoquinolin-2(1H)-yl]-3-{5-chloro-1-[tricyclo[3.3.1.1^3,7]dec-1-ylmethyl]-1H-pyrazol-4-yl}pyridine-2-carboxylic acid] | 0.3 |
| N#Cc1c(-c2ccc(N3CCc4cccc(C(=O)Nc5nc6ccccc6s5)c4C3)nc2C(=O)O)cccc1S(=O)(=O)C12CC3CC(CC(C3)C1)C2 [Example 60, 6-[8-(1,3-benzothiazol-2-ylcarbamoyl)-3,4-dihydroisoquinolin-2(1H)-yl]-3-[2-cyano-3-(tricyclo[3.3.1.1^3,7]dec-1-ylsulfonyl)phenyl]pyridine-2-carboxylic acid] | < 0.1 |
| Cc1c(-c2ccc(N3CCc4cccc(C(=O)Nc5nc6ccccc6s5)c4C3)nc2C(=O)O)ccnc1S(=O)(=O)C12CC3CC(CC(C3)C1)C2 [Example 70, 6-[8-(1,3-benzothiazol-2-ylcarbamoyl)-3,4-dihydroisoquinolin-2(1H)-yl]-3′-methyl-2′-(tricyclo[3.3.1.1^3,7]dec-1-ylsulfonyl)-3,4′-bipyridine-2-carboxylic acid] | < 0.1 |
| Cc1c(-c2ccc(N3CCc4cccc(C(=O)Nc5nc6ccccc6s5)c4C3)nc2C(=O)O)cccc1N(C)CC12CC3CC(CC(C3)C1)C2 [Example 55, 6-[8-(1,3-benzothiazol-2-ylcarbamoyl)-3,4-dihydroisoquinolin-2(1H)-yl]-3-(2-methyl-3-{methyl[tricyclo[3.3.1.1^3,7]dec-1-ylmethyl]amino}phenyl)pyridine-2-carboxylic acid] | 0.4 |
| O=C(Nc1nc2ccccc2s1)c1cccc2c1CN(c1ccc(-c3cnn(CC45CC6CC(CC(C6)O4)C5)c3)c(C(=O)O)n1)CC2 [Example 13, 6-[8-(1,3-benzothiazol-2-ylcarbamoyl)-3,4-dihydroisoquinolin-2(1H)-yl]-3-[1-(2-oxatricyclo[3.3.1.1^3,7]dec-1-ylmethyl)-1H-pyrazol-4-yl]pyridine-2-carboxylic acid] | < 0.1 |
| Cc1c(-c2ccc(N3CCc4cccc(C(=O)Nc5nc6ccccc6s5)c4C3)nc2C(=O)O)cc(C#N)n1CC12CC3CC(CC(C)(C3)O1)C2 [Example 72, 6-[8-(1,3-benzothiazol-2-ylcarbamoyl)-3,4-dihydroisoquinolin-2(1H)-yl]-3-{5-cyano-2-methyl-1-[(3-methyl-2-oxatricyclo[3.3.1.1^3,7]dec-1-yl)methyl]-1H-pyrrol-3-yl}pyridine-2-carboxylic acid] | < 0.1 |
| CNCCOC12CC3(C)CC(C)(CC(Cn4ncc(-c5ccc(N6CCc7cccc(C(=O)Nc8nc9ccccc9s8)c7C6)nc5C(=O)O)c4C)(C3)C1)C2 [Example 82, 6-[8-(1,3-benzothiazol-2-ylcarbamoyl)-3,4-dihydroisoquinolin-2(1H)-yl]-3-[1-({3,5-dimethyl-7-[2-(methylamino)ethoxy]tricyclo[3.3.1.1^3,7]dec-1-yl}methyl)-5-methyl-1H-pyrazol-4-yl]pyridine-2-carboxylic acid] | < 0.1 |
| COC12CC3CC(CC(Cn4c(C#N)cc(-c5ccc(N6CCc7cccc(C(=O)Nc8nc9ccccc9s8)c7C6)nc5C(=O)O)c4C)(C3)C1)C2 [Example 58, 6-[8-(1,3-benzothiazol-2-ylcarbamoyl)-3,4-dihydroisoquinolin-2(1H)-yl]-3-(5-cyano-1-{[3-methoxytricyclo[3.3.1.1^3,7]dec-1-yl]methyl}-2-methyl-1H-pyrrol-3-yl)pyridine-2-carboxylic acid] | < 0.1 |
| Cc1c(-c2ccc(N3CCc4cccc(C(=O)Nc5nc6ccccc6s5)c4C3)nc2C(=O)O)cccc1N(C)C(=O)C12CC3CC(CC(C3)O1)C2 [Example 68, 6-[8-(1,3-benzothiazol-2-ylcarbamoyl)-3,4-dihydroisoquinolin-2(1H)-yl]-3-{2-methyl-3-[methyl(2-oxatricyclo[3.3.1.1^3,7]dec-1-ylcarbonyl)amino]phenyl}pyridine-2-carboxylic acid] | < 0.1 |
| Cc1c(-c2ccc(N3CCc4cccc(C(=O)Nc5nc6ccccc6s5)c4C3)nc2C(=O)O)cnn1CC12CC3CC(C1)CC(S(C)(=O)=O)(C3)C2 [Example 81, 6-[8-(1,3-benzothiazol-2-ylcarbamoyl)-3,4-dihydroisoquinolin-2(1H)-yl]-3-(5-methyl-1-{[3-(methylsulfonyl)tricyclo[3.3.1.1^3,7]dec-1-yl]methyl}-1H-pyrazol-4-yl)pyridine-2-carboxylic acid] | < 0.1 |
| Cc1c(C(=O)N(C)C2C3CC4CC(C3)CC2C4)cccc1-c1ccc(N2CCc3cccc(C(=O)Nc4nc5ccccc5s4)c3C2)nc1C(=O)O (stereo not shown) [Example 64] | < 0.1 |
| Cc1c(-c2ccc(N3CCc4cccc(C(=O)Nc5nc6ccccc6s5)c4C3)nc2C(=O)O)cccc1S(=O)(=O)N(C)C1C2CC3CC(C2)CC1C3 (stereo not shown) [Example 69, 6-[8-(1,3-benzothiazol-2-ylcarbamoyl)-3,4-dihydroisoquinolin-2(1H)-yl]-3-(2-methyl-3-{methyl[tricyclo[3.3.1.1^3,7]dec-2-yl]sulfamoyl}phenyl)pyridine-2-carboxylic acid] | 0.6 |
| O=C(Nc1nc2ccccc2s1)c1cccc2c1CN(c1ccc(-c3cnn(CC45CC6CC(CC(O)(C6)C4)C5)c3)c(C(=O)O)n1)CC2 [Example 6, 6-[8-(1,3-benzothiazol-2-ylcarbamoyl)-3,4-dihydroisoquinolin-2(1H)-yl]-3-(1-{[3-hydroxytricyclo[3.3.1.1^3,7]dec-1-yl]methyl}-1H-pyrazol-4-yl)pyridine-2-carboxylic acid] | < 0.1 |
| Cc1c(-c2ccc(N3CCc4cccc(C(=O)Nc5cn6ccncc6n5)c4C3)nc2C(=O)O)cnn1CC12CC3CC(CC(C3)C1)C2 [Example 73, 6-[8-(imidazo[1,2-a]pyrazin-2-ylcarbamoyl)-3,4-dihydroisoquinolin-2(1H)-yl]-3-[5-methyl-1-(tricyclo[3.3.1.1^3,7]dec-1-ylmethyl)-1H-pyrazol-4-yl]pyridine-2-carboxylic acid] | < 0.1 |
| O=C(Nc1nc2ccccc2s1)c1cccc2c1CN(c1ccc(-c3cnn(CC45CC6CC(CC(Br)(C6)C4)C5)c3)c(C(=O)O)n1)CC2 [Example 11, 6-[8-(1,3-benzothiazol-2-ylcarbamoyl)-3,4-dihydroisoquinolin-2(1H)-yl]-3-(1-{[3-bromotricyclo[3.3.1.1^3,7]dec-1-yl]methyl}-1H-pyrazol-4-yl)pyridine-2-carboxylic acid] | < 0.1 |
| O=C(Nc1nc2ccccc2s1)c1cccc2c1CN(c1ccc(-c3cnn(CC45CC6CC(C4)CC(N4CCOCC4)(C6)C5)c3)c(C(=O)O)n1)CC2 [Example 15, 6-[8-(1,3-benzothiazol-2-ylcarbamoyl)-3,4-dihydroisoquinolin-2(1H)-yl]-3-(1-{[3-(morpholin-4-yl)tricyclo[3.3.1.1^3,7]dec-1-yl]methyl}-1H-pyrazol-4-yl)pyridine-2-carboxylic acid] | < 0.1 |
| Cc1c(-c2ccc(N3CCc4cccc(C(=O)Nc5nc6ccccc6s5)c4C3)nc2C(=O)O)ccnc1N(C)C1CCCCCCC1 [Example 61, 6-[8-(1,3-benzothiazol-2-ylcarbamoyl)-3,4-dihydroisoquinolin-2(1H)-yl]-2′-[cyclooctyl(methyl)amino]-3′-methyl-3,4′-bipyridine-2-carboxylic acid] | < 0.1 |
| Cc1c(-c2ccc(N3CCc4cccc(C(=O)Nc5nc6ccccc6s5)c4C3)nc2C(=O)O)cnn1CC1C2CC3CC(C2)CC1C3 (stereo not shown) [Example 62, 6-[8-(1,3-benzothiazol-2-ylcarbamoyl)-3,4-dihydroisoquinolin-2(1H)-yl]-3-[5-methyl-1-(tricyclo[3.3.1.1^3,7]dec-2-ylmethyl)-1H-pyrazol-4-yl]pyridine-2-carboxylic acid] | < 0.1 |
